Source: ChEMBL document CHEMBL4406826, “Discovery of δ-sultone-fused pyrazoles for treating Alzheimer's disease: Design, synthesis, biological evaluation and SAR studies” (Eur J Med Chem, 2019)
Active and inactive are the calls of the source.

Tests used:
[1] = target: Acetylcholinesterase (Electrophorus electricus) (UniProt O42275); experiment: Inhibition of electric eel AChE at 20 uM using acetylthiocholine iodide as substrate preincubated with enzyme for 20 mins followed by substrate addition by Ellman's method relative to control
Chain of Acetylcholinesterase (Electrophorus electricus) (O42275 24-633 limits assumed): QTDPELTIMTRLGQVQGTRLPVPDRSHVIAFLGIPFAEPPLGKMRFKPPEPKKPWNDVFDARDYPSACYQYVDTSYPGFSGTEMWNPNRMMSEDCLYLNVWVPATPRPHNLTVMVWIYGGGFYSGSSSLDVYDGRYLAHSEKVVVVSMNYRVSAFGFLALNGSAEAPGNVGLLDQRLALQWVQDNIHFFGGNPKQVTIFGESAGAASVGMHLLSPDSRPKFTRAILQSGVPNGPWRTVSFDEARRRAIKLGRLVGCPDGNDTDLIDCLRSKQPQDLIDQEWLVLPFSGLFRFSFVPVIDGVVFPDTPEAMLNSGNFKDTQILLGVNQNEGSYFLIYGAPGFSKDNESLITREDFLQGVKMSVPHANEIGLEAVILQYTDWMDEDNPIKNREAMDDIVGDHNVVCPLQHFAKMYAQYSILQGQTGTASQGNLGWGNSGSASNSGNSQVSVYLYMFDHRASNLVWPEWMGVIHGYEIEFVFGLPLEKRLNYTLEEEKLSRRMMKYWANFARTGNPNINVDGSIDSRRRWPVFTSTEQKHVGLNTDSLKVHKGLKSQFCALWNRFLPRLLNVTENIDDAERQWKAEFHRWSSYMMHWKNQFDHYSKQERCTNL

[2] = target: Cholinesterase (Equus caballus) (UniProt P81908); experiment: Inhibition of equine serum BuChE at 20 uM using butyrylthiocholine iodide as substrate preincubated with enzyme for 20 mins followed by substrate addition by Ellman's method relative to control
Chain of Cholinesterase (Equus caballus) (P81908 whole entry): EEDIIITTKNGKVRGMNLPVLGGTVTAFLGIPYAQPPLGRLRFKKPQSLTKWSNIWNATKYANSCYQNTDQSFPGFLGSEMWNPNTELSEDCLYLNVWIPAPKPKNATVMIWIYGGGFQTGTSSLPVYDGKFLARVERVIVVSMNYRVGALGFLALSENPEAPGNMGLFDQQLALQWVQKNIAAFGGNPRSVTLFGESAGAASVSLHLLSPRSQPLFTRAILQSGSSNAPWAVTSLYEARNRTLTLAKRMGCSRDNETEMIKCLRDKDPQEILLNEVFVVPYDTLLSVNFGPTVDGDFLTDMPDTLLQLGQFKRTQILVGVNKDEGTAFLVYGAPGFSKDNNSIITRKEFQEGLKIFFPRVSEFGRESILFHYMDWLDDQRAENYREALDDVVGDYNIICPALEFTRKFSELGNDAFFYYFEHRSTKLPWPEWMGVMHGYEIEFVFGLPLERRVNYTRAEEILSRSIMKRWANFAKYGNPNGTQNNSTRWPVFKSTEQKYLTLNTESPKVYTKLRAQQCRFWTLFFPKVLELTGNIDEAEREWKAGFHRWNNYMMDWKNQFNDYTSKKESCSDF

Cholinesterase = Cholinesterase (Equus caballus, UniProt P81908); experiment: Inhibition of equine serum BuChE using butyrylthiocholine iodide as substrate preincubated with enzyme for 20 mins followed by substrate addition by Ellman's method
Chain of Cholinesterase (P81908 whole entry): as above

[3] = Octanol-PBS buffer partition coefficient, log P of the compound incubated for 24 hrs measured at pH 7.4 by shake-flask method; type: physicochemical

| Structure (SMILES) | inhibition [1] | inhibition [2] | IC50 (Cholinesterase) | logD at 24 h [3] |
| --- | --- | --- | --- | --- |
| Cc1nn(-c2cccc(Cl)c2)c2c1C(c1cccc(F)c1)CS(=O)(=O)O2 (centres undefined) | inactive | inactive |  |  |
| O=S1(=O)CC(c2cccc(F)c2)c2c(C3CC3)nn(-c3ccccc3F)c2O1 (centres undefined) | inactive |  | 4.01 µM | 2.86 |
| Cc1cc(C2CS(=O)(=O)Oc3c2c(C)nn3-c2ccccc2F)ccc1Br (centres undefined) | inactive |  | 3.83 µM | 2.26 |
| Cc1cc(C)cc(C2CS(=O)(=O)Oc3c2c(C)nn3-c2ccccc2)c1 (centres undefined) | inactive | inactive |  |  |
| O=S1(=O)CC(c2ccc(F)cc2)c2c(C3CC3)nn(-c3ccccc3F)c2O1 (centres undefined) | inactive |  | 7.76 µM | 1.76 |
| Cc1nn(-c2ccccc2F)c2c1C(c1ccc(F)cc1)CS(=O)(=O)O2 (centres undefined) | inactive |  | 6.1 µM | 2.13 |
| Cc1nn(-c2ccccc2)c2c1C(/C=C/c1ccc(C(C)(C)C)cc1)CS(=O)(=O)O2 (centres undefined) | 11% | inactive |  |  |
| O=C1CCC2=C1C(c1ccc([N+](=O)[O-])cc1)CS(=O)(=O)O2 (centres undefined) | inactive | inactive |  |  |
| Cc1cccc(C2CS(=O)(=O)Oc3c2c(C)nn3-c2ccccc2)c1 (centres undefined) | inactive |  | 17.7 µM |  |
| COc1ccc(-c2nn(-c3ccccc3Cl)c3c2C(c2ccc(F)cc2)CS(=O)(=O)O3)cc1 (centres undefined) | inactive | inactive |  |  |
| Cc1nn(-c2ccc(F)cc2)c2c1C(c1ccccc1)CS(=O)(=O)O2 (centres undefined) | inactive | inactive |  |  |
| O=C1CCCC2=C1C(c1ccc([N+](=O)[O-])cc1)CS(=O)(=O)O2 (centres undefined) | inactive | 25% |  |  |
| COc1ccc(-c2nn(-c3ccc(Cl)cc3)c3c2C(c2ccc(Br)c(C)c2)CS(=O)(=O)O3)cc1 (centres undefined) | inactive |  | 13.3 µM |  |
| Cc1nn(-c2ccccc2)c2c1C(c1ccsc1)CS(=O)(=O)O2 (centres undefined) | inactive |  | 10.1 µM |  |
| COc1cccc(C2CS(=O)(=O)Oc3c2c(C2CC2)nn3-c2cccc(F)c2)c1 (centres undefined) | inactive |  | 14.3 µM |  |
| Cc1cccc(-n2nc(C)c3c2OS(=O)(=O)CC3c2ccccc2)c1 (centres undefined) | inactive | inactive |  |  |
| O=S1(=O)CC(c2cccc(C(F)(F)F)c2)c2c(C3CC3)nn(-c3ccccc3Cl)c2O1 (centres undefined) | inactive | inactive |  |  |
| Cc1ccc(C2CS(=O)(=O)Oc3c2c(C)nn3-c2ccccc2)cc1Br (centres undefined) | inactive |  | 18.3 µM |  |
| Cc1cccc(/C=C/C2CS(=O)(=O)Oc3c2c(C)nn3-c2ccccc2)c1 (centres undefined) | 13% |  | 10.1 µM |  |
| Cc1nn(-c2cccc(F)c2)c2c1C(c1ccc(F)cc1)CS(=O)(=O)O2 (centres undefined) | inactive | inactive |  |  |
| N#Cc1ccc(C2CS(=O)(=O)Oc3c2c(C2CC2)nn3-c2cccc(Cl)c2)cc1 (centres undefined) | inactive | inactive |  |  |
| COc1ccc(-n2nc(C)c3c2OS(=O)(=O)CC3c2ccc(Br)c(C)c2)cc1 (centres undefined) | inactive | inactive |  |  |
| Cc1cc(C2CS(=O)(=O)Oc3c2c(C2CC2)nn3-c2ccccc2Cl)ccc1Br (centres undefined) | inactive |  | 3.77 µM | 2.53 |

| Structure (SMILES) | inhibition [1] | inhibition [2] | IC50 (Cholinesterase) | logD at 24 h [3] |
| --- | --- | --- | --- | --- |
| COc1ccc(C2CS(=O)(=O)Oc3c2c(C)nn3-c2ccccc2)cc1 (centres undefined) | inactive |  | 9.35 µM |  |
| COc1ccc(-c2nn(-c3ccc(Cl)cc3)c3c2C(c2ccc(F)cc2)CS(=O)(=O)O3)cc1 (centres undefined) | inactive | 7% |  |  |
| CC(=O)C1=C(C)OS(=O)(=O)CC1c1ccc([N+](=O)[O-])cc1 (centres undefined) | inactive | inactive |  |  |
| Cc1ccc(-n2nc(C)c3c2OS(=O)(=O)CC3c2ccccc2)cc1 (centres undefined) | inactive | inactive |  |  |
| COc1ccc(-c2nn(-c3ccc(Cl)cc3)c3c2C(c2ccc(C#N)cc2)CS(=O)(=O)O3)cc1 (centres undefined) | inactive |  | 21 µM |  |
| Cc1nn(-c2ccccc2F)c2c1CCS(=O)(=O)O2 | inactive |  | 1.8 µM | 1.86 |
| Cc1nn(-c2ccc(Br)cc2)c2c1C(c1ccccc1)CS(=O)(=O)O2 (centres undefined) | inactive | inactive |  |  |
| CC(=O)c1cccc(C2CS(=O)(=O)Oc3c2c(C)nn3-c2ccccc2)c1 (centres undefined) | inactive | 24% |  |  |
| COc1ccccc1C1CS(=O)(=O)Oc2c1c(C)nn2-c1ccccc1 (centres undefined) | inactive | 31% |  |  |
| Cc1nn(-c2ccccc2)c2c1C(c1cccc(C3CS(=O)(=O)Oc4c3c(C)nn4-c3ccccc3)c1)CS(=O)(=O)O2 (centres undefined) | inactive | inactive |  |  |
| CC1(C)CC(=O)C2=C(C1)OS(=O)(=O)CC2c1ccc([N+](=O)[O-])cc1 (centres undefined) | inactive | inactive |  |  |
| Cc1nn(-c2ccccc2)c2c1C(/C=C/c1ccc(C(F)(F)F)cc1)CS(=O)(=O)O2 (centres undefined) | 19% | inactive |  |  |
| Cc1nn(-c2ccccc2)c2c1C(c1cc3ccccc3s1)CS(=O)(=O)O2 (centres undefined) | 14% | 33% |  |  |
| COc1ccc(-c2nn(-c3ccccc3F)c3c2C(c2ccc(F)cc2)CS(=O)(=O)O3)cc1 (centres undefined) | inactive | inactive |  |  |
| Cc1nn(-c2ccc(Cl)cc2)c2c1C(c1cccc(F)c1)CS(=O)(=O)O2 (centres undefined) | inactive | inactive |  |  |
| Cc1cc(C2CS(=O)(=O)Oc3c2c(C2CC2)nn3-c2cccc(F)c2)ccc1Br (centres undefined) | inactive |  | 11.5 µM |  |
| Cc1nn(-c2ccccc2)c2c1C(c1cccs1)CS(=O)(=O)O2 (centres undefined) | inactive | 42% |  |  |
| Cc1ccc(C2CS(=O)(=O)Oc3c2c(C)nn3-c2ccccc2)cc1 (centres undefined) | inactive | inactive |  |  |
| Cc1nn(-c2ccccc2)c2c1C(c1cc3ccccc3o1)CS(=O)(=O)O2 (centres undefined) | inactive |  | 2.6 µM |  |
| Cc1cc(C2CS(=O)(=O)Oc3c2c(C2CC2)nn3-c2cccc(Cl)c2)ccc1Br (centres undefined) | inactive | 34% |  |  |
| Cc1nn(-c2ccccc2)c2c1C(c1ccc(F)cc1)CS(=O)(=O)O2 (centres undefined) | inactive | 37% |  |  |
| COc1ccc(-n2nc(C)c3c2OS(=O)(=O)CC3c2ccc(F)cc2)cc1 (centres undefined) | inactive | 15% |  |  |
| Cc1nn(-c2ccccc2)c2c1C(c1cccc3c1sc1ccccc13)CS(=O)(=O)O2 (centres undefined) | inactive | inactive |  |  |

| Structure (SMILES) | inhibition [1] | inhibition [2] | IC50 (Cholinesterase) | logD at 24 h [3] |
| --- | --- | --- | --- | --- |
| CCOC(=O)c1ccc(C2CS(=O)(=O)Oc3c2c(C)nn3-c2ccccc2)cc1 (centres undefined) | inactive | inactive |  |  |
| Cc1nn(-c2ccccc2)c2c1C(/C=C/c1ccc(Br)cc1)CS(=O)(=O)O2 (centres undefined) | inactive | inactive |  |  |
| Cc1nn(-c2ccccc2)c2c1C(c1ccc(-c3ccccc3)cc1)CS(=O)(=O)O2 (centres undefined) | 12% | inactive |  |  |
| COc1cccc(C2CS(=O)(=O)Oc3c2c(C)nn3-c2cccc(Cl)c2)c1 (centres undefined) | inactive | inactive |  |  |
| CC(C)C(=O)C1=C(C(C)C)OS(=O)(=O)CC1c1ccc([N+](=O)[O-])cc1 (centres undefined) | inactive | inactive |  |  |
| Cc1nn(-c2ccccc2)c2c1C(c1ccc([N+](=O)[O-])cc1)CS(=O)(=O)O2 (centres undefined) | inactive | inactive |  |  |
| COc1ccc(-c2nn(-c3ccccc3Cl)c3c2C(c2ccc(Br)c(C)c2)CS(=O)(=O)O3)cc1 (centres undefined) | inactive | 35% |  |  |
| Cc1nn(-c2ccccc2)c2c1CCS(=O)(=O)O2 | inactive | inactive |  |  |
| COc1ccc(-c2nn(-c3ccc(Cl)cc3)c3c2C(c2cccc(OC)c2)CS(=O)(=O)O3)cc1 (centres undefined) | inactive | 42% |  |  |
| COc1cccc(C2CS(=O)(=O)Oc3c2c(C)nn3-c2ccccc2)c1 (centres undefined) | inactive |  | 11 µM |  |
| Cc1nn(-c2ccc(Cl)cc2)c2c1C(c1ccc(F)cc1)CS(=O)(=O)O2 (centres undefined) | inactive | inactive |  |  |
| Cc1cc(C2CS(=O)(=O)Oc3c2c(C)nn3-c2ccc(Cl)cc2)ccc1Br (centres undefined) | inactive | 34% |  |  |
| Cc1nn(-c2cccc(Cl)c2)c2c1C(c1ccc(F)cc1)CS(=O)(=O)O2 (centres undefined) | inactive | inactive |  |  |
| Cc1cc(C2CS(=O)(=O)Oc3c2c(C)nn3-c2cccc(Cl)c2)ccc1Br (centres undefined) | inactive | inactive |  |  |
| Cc1nn(-c2ccccc2)c2c1C(c1ccc(C#N)cc1)CS(=O)(=O)O2 (centres undefined) | inactive | 15% |  |  |
| Cc1nn(-c2ccccc2)c2c1C(c1ccc3ccccc3c1)CS(=O)(=O)O2 (centres undefined) | inactive | inactive |  |  |
| Cc1nn(-c2ccccc2)c2c1C(c1cccc(F)c1)CS(=O)(=O)O2 (centres undefined) | inactive |  | 9.82 µM |  |
| Cc1nn(-c2ccccc2)c2c1C(c1cccc(C(F)(F)F)c1)CS(=O)(=O)O2 (centres undefined) | inactive |  | 16.4 µM |  |
| Cc1nn(-c2ccccc2)c2c1C(c1cnn(-c3ccccc3)c1)CS(=O)(=O)O2 (centres undefined) | inactive | 14% |  |  |
| Cc1nn(-c2ccccc2)c2c1C(c1cccc([N+](=O)[O-])c1)CS(=O)(=O)O2 (centres undefined) | inactive | 23% |  |  |
| Cc1ccc(-n2nc(C)c3c2OS(=O)(=O)CC3c2ccccc2)cc1C (centres undefined) | inactive | inactive |  |  |
| Cc1nn(-c2cccc(F)c2)c2c1C(c1cccc(F)c1)CS(=O)(=O)O2 (centres undefined) | inactive | inactive |  |  |
| N#Cc1ccc(C2CS(=O)(=O)Oc3c2c(C2CC2)nn3-c2ccccc2Cl)cc1 (centres undefined) | inactive | 7% |  |  |
